Source: US20240158393A1, “PYRIDONE COMPOUNDS AND METHODS OF USE” (Exelixis, Inc., priority 2021, published 2024)

The compounds below were run against T1, Human Axl (Homo sapiens, UniProt P30530) (assay: Human AXL kinase assay (33P radiometric / HTRF KinEase)). Conditions: protocols of Examples A-1 and/or A-2.
T1 construct: Human AXL (residues 464-885)
T1 sequence (P30530 1-894 Q764R): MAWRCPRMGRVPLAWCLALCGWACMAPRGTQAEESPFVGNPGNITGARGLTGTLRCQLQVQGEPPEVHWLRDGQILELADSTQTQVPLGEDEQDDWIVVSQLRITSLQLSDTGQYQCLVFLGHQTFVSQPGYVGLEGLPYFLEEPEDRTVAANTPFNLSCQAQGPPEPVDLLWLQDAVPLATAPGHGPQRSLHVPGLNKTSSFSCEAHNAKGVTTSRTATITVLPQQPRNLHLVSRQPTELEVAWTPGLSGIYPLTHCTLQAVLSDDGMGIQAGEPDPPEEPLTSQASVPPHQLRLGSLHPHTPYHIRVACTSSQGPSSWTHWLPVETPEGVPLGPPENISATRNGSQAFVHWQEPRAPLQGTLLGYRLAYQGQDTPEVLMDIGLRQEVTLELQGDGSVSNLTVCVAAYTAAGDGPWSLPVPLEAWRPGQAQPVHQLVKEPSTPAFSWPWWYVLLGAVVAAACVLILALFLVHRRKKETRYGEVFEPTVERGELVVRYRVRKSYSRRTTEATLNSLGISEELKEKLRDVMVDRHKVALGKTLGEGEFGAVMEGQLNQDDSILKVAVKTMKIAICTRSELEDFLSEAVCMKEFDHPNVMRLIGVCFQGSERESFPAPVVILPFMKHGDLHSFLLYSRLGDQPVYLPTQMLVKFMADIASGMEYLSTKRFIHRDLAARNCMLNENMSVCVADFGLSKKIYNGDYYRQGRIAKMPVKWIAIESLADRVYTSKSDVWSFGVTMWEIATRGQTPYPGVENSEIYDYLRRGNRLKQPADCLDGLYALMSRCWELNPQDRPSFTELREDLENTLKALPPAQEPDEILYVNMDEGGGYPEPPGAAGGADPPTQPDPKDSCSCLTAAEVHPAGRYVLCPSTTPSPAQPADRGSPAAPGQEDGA
Format: biochemical
Experimental: Kinase activity and compound inhibition were investigated using the ^33P-Phosphoryl transfer radiometric kinase assay, performed using the KinaseProfiler™ service of Eurofins Pharma Discovery Services UK Limited. Dose-response experiments were performed using nine compound concentrations in a 96-well microtiter plate. For each assay, all compounds were prepared to a 50× final assay concentration (50 μM) in 100% DMSO, then diluted in a half-log series, with the final top concentration at 1 μM. This working stock of the compound was added to the assay well as the first component in the reaction, followed by the remaining components as detailed in the following assay protocols below. The positive control wells (100% kinase activity) contain all components of the reaction including 2% DMSO (control for solvent effects), except the compound of interest. Blank wells contain all components of the reaction, with the reference inhibitor, staurosporine. This reference compound was used to abolish kinase activity and generated the 0% kinase activity base-line. IC50 values were calculated by nonlinear regression analysis using the sigmoidal dose-response (variable slope) curve fit on XLFit version 5.3 (ID Business Solutions).
Kinase activity and compound inhibition were also investigated using the HTRF® KinEase assay (Cisbio Cat #62TKOPEB) per manufacturer's instructions. In short, compounds were delivered in 300 nL volumes at 10 different concentrations in DMSO (3% final) to empty 384-well assay plates (Corning cat #3824). A mixture of enzyme, 1 μM biotinylated peptide substrate, and buffer in 10 μL volume was added. The assay was started upon the addition of ATP (at Km). The 10 μL reaction was incubated at room temperature. The reaction was stopped upon the addition of detection buffer containing streptavidin-XL665 (5 μL) and TK antibody-Eu3+(5 μL). After a 60 min incubation at room temperature, the fluorescence at 665 nm and 620 nm was read on an Envision microplate reader (Perkin Elmer).
Kinase activity normalized to DMSO (100% activity) and reference compound at 1 μM and (0% activity) was calculated using the fluorescence ratio […]. IC50 values were calculated by nonlinear regression analysis using a 4-parameter logistic curve fit in ActivityBase XE (IDBS).
Example A-1: Human Axl (residues H473-A894 with Q764R, 161 nM) was incubated with 8 mM MOPS pH 7.0, 0.2 mM EDTA, 250 μM KKSRGDYMTMQIG (SEQ ID NO:1), 10 mM magnesium acetate and 10 μM [γ-^33P-ATP]. The reaction was initiated by the addition of the Mg/ATP mix. After incubation for 40 minutes at room temperature, the reaction was stopped by the addition of phosphoric acid to a concentration of 0.5%. A reaction aliquot of 10 μL was then spotted onto a P30 filtermat and washed four times for 4 minutes in 0.425% phosphoric acid and once in methanol prior to drying and scintillation counting. Incorporated ^33P was measured using the Wallac Microbeta scintillation counter (Perkin Elmer).
Example A-2: Human AXL (residues 464-885; CarnaBio, 1 ng/well) was also incubated with enzymatic buffer (Cisbio) supplemented with 5 mM MgCl2, 1 mM DTT, and Supplemental Enzymatic Buffer (SEB; Cisbio). The mixture was added to the pre-plated compounds. The reaction was initiated upon addition of ATP at Km (1.0 μM). The reaction was incubated at room temperature for 50 min and stopped upon the addition of SA-XL665 and TK-antibody both diluted in EDTA-containing kinase detection buffer (Cisbio). The kinase activity was calculated as stated above and the IC50 values were reported.

How did the IC50 turn out when `COCCOc1cc2nccc(Oc3ccc(NC(=O)c4c(C)nc(C)c(C5=CCCC5)c4O)cc3F)c2nc1OC` [Compound 41, 5-(Cyclopenten-1-yl)-N-[3-fluoro-4-[[6-methoxy-7-(2-methoxyethoxy)-1,5-naphthyridin-4-yl]oxy]phenyl]-4-hydroxy-2,6-dimethylpyridine-3-carboxamide] was run?
The IC50 was ≤ 100 nM.

Which IC50 does the source give for `COc1cc2nccc(Oc3ccc(NC(=O)c4c(C)n(C)c(C)c(/C=C/C5CC5)c4=O)cc3F)c2nc1OC` [Compound 50, 5-[(E)-2-Cyclopropylethenyl]-N-[4-[(6,7-dimethoxy-1,5-naphthyridin-4-yl)oxy]-3-fluorophenyl]-1,2,6-trimethyl-4-oxopyridine-3-carboxamide] here?
The IC50 was ≤ 100 nM.

How did the IC50 turn out when `COc1cc2nccc(Oc3ccc(NC(=O)c4cn(C)c(C)c(C5CCCC5)c4=O)cc3F)c2nc1OC` [Compound 2, 5-Cyclopentyl-N-[4-[(6,7-dimethoxy-1,5-naphthyridin-4-yl)oxy]-3-fluorophenyl]-1,6-dimethyl-4-oxopyridine-3-carboxamide] was run?
The IC50 was ≤ 100 nM.

With `COc1cc2nccc(Oc3ccc(NC(=O)c4c(C)n(C)c(C)c(C(=O)NC5CC5)c4=O)cc3F)c2nc1OC` [Compound 96, 3-N-Cyclopropyl-5-N-[4-[(6,7-dimethoxy-1,5-naphthyridin-4-yl)oxy]-3-fluorophenyl]-1,2,6-trimethyl-4-oxopyridine-3,5-dicarboxamide] as the compound, how does the IC50 read?
The IC50 was > 300 nM.

How did the IC50 turn out when `C=C(C)n1c(C)cc(C)c(C(=O)Nc2ccc(Oc3ccnc4cc(OC)cnc34)c(F)c2)c1=O` [Compound 21, N-[3-Fluoro-4-[(7-methoxy-1,5-naphthyridin-4-yl)oxy]phenyl]-4,6-dimethyl-2-oxo-1-prop-1-en-2-ylpyridine-3-carboxamide] was run?
Its IC50 is > 300 nM.

How did the IC50 turn out when `COc1cnc2c(Oc3ccc(NC(=O)c4cnc(C)c(C5=CCOCC5)c4O)cc3F)ccnc2c1` [Compound 1-4, 5-(3,6-Dihydro-2H-pyran-4-yl)-N-[3-fluoro-4-[(7-methoxy-1,5-naphthyridin-4-yl)oxy]phenyl]-4-hydroxy-6-methylpyridine-3-carboxamide] was run?
The IC50 was ≤ 100 nM.

`COc1cc2nccc(Oc3ccc(NC(=O)c4cnc(C)c(C5=CCCC5)c4O)cc3)c2cc1OC` [Compound 16, 5-(Cyclopenten-1-yl)-N-[4-(6,7-dimethoxyquinolin-4-yl)oxyphenyl]-4-hydroxy-6-methylpyridine-3-carboxamide] was tested. Which IC50 did it give?
The IC50 was ≤ 100 nM.

For `COc1cnc2c(Oc3ccc(NC(=O)c4cnc(C)c(C5=CCOCC5)c4O)cc3)ccnc2c1` [Compound 7, 5-(3,6-Dihydro-2H-pyran-4-yl)-4-hydroxy-N-[4-[(7-methoxy-1,5-naphthyridin-4-yl)oxy]phenyl]-6-methylpyridine-3-carboxamide], which IC50 is on record?
Its IC50 is ≤ 100 nM.

For `C=C(C)n1c(C)cc(C)c(C(=O)Nc2ccc(Oc3ccnc4cc(OC)c(OC)nc34)c(F)c2)c1=O` [Compound 20, N-[4-[(6,7-Dimethoxy-1,5-naphthyridin-4-yl)oxy]-3-fluorophenyl]-4,6-dimethyl-2-oxo-1-prop-1-en-2-ylpyridine-3-carboxamide], which IC50 is on record?
Its IC50 is ≤ 100 nM.

`COc1cc2nccc(Oc3ccc(NC(=O)c4cn(C)c(C)c(C5=CCCC5)c4=O)cc3F)c2nc1OC` [Compound 1, 5-(Cyclopenten-1-yl)-N-[4-[(6,7-dimethoxy-1,5-naphthyridin-4-yl)oxy]-3-fluorophenyl]-1,6-dimethyl-4-oxopyridine-3-carboxamide] was tested. Which IC50 did it give?
Its IC50 is ≤ 100 nM.

Which IC50 does the source give for `COc1cc2nccc(Oc3ccc(NC(=O)c4c5n(c(C)c(C6=CCCCC6)c4=O)CCOC5)cc3F)c2nc1OC` [Compound 80, 7-(Cyclohexen-1-yl)-N-[4-[(6,7-dimethoxy-1,5-naphthyridin-4-yl)oxy]-3-fluorophenyl]-6-methyl-8-oxo-3,4-dihydro-1H-pyrido[2,1-c][1,4]oxazine-9-carboxamide] here?
The IC50 was ≤ 100 nM.

For `COc1cnc2c(Oc3ccc(NC(=O)c4c(C)nc(C)c(C(N)=O)c4O)cc3F)ccnc2c1` [Compound 91, 3-N-[3-Fluoro-4-[(7-methoxy-1,5-naphthyridin-4-yl)oxy]phenyl]-4-hydroxy-2,6-dimethylpyridine-3,5-dicarboxamide], which IC50 is on record?
Its IC50 is > 300 nM.

For `COc1cc2nccc(Oc3ccc(NC(=O)c4cnc(C)c(/C=C/C(C)(C)C)c4O)cc3F)c2cc1OC` [Compound 30, N-[4-(6,7-Dimethoxyquinolin-4-yl)oxy-3-fluorophenyl]-5-[(E)-3,3-dimethylbut-1-enyl]-4-hydroxy-6-methylpyridine-3-carboxamide], which IC50 is on record?
The IC50 was ≤ 100 nM.

How did the IC50 turn out when `COc1cc2nccc(Oc3ccc(NC(=O)c4c(C)n(C)c(C)c(C(=O)N(C)C)c4=O)cc3F)c2nc1OC` [Compound 95, 5-N-[4-[(6,7-Dimethoxy-1,5-naphthyridin-4-yl)oxy]-3-fluorophenyl]-3-N,3-N,1,2,6-pentamethyl-4-oxopyridine-3,5-dicarboxamide] was run?
Its IC50 is 100 to 300 nM.

`COCCOc1cc2nccc(Oc3ccc(NC(=O)c4c(C)n(C)c(C)c(/C=C/C(C)(C)C)c4=O)cc3F)c2nc1OC` [Compound 45, 5-[(E)-3,3-Dimethylbut-1-enyl]-N-[3-fluoro-4-[[6-methoxy-7-(2-methoxyethoxy)-1,5-naphthyridin-4-yl]oxy]phenyl]-1,2,6-trimethyl-4-oxopyridine-3-carboxamide] was tested. Which IC50 did it give?
The IC50 was ≤ 100 nM.

`COc1cc2nccc(Oc3ccc(NC(=O)c4cnc(C)c(C5=CCOCC5)c4O)cc3)c2cc1OC` [Compound 17, 5-(3,6-Dihydro-2H-pyran-4-yl)-N-[4-(6,7-dimethoxyquinolin-4-yl)oxyphenyl]-4-hydroxy-6-methylpyridine-3-carboxamide] was tested. Which IC50 did it give?
Its IC50 is ≤ 100 nM.

Which IC50 does the source give for `COc1cc2nccc(Oc3ccc(NC(=O)c4c(C)n(C)c(C)c(N5CCOCC5)c4=O)cc3F)c2nc1OC` [Compound 88, N-[4-[(6,7-Dimethoxy-1,5-naphthyridin-4-yl)oxy]-3-fluorophenyl]-1,2,6-trimethyl-5-morpholin-4-yl-4-oxopyridine-3-carboxamide] here?
Its IC50 is ≤ 100 nM.

With `COc1cnc2c(Oc3ccc(NC(=O)c4c(C)nc(C)c(C(C)C)c4O)cc3F)ccnc2c1` [Compound 32, N-[3-Fluoro-4-[(7-methoxy-1,5-naphthyridin-4-yl)oxy]phenyl]-4-hydroxy-2,6-dimethyl-5-propan-2-ylpyridine-3-carboxamide] as the compound, how does the IC50 read?
Its IC50 is ≤ 100 nM.

For `COc1cc2nccc(Oc3ccc(NC(=O)c4cnc(C)c(C5=CCOCC5)c4O)cc3F)c2cc1OC` [Compound 19, 5-(3,6-Dihydro-2H-pyran-4-yl)-N-[4-(6,7-dimethoxyquinolin-4-yl)oxy-3-fluorophenyl]-4-hydroxy-6-methylpyridine-3-carboxamide], which IC50 is on record?
The IC50 was ≤ 100 nM.
